Earlier results, collected in PMC5292677 (Leukemia, 2016).
Like-named read-outs stand apart in the source and are kept apart here.

Test system: patients with MF
Settings: cited from earlier work

## C1=C/COCc2cc(ccc2OCCN2CCCC2)Nc2nccc(n2)-c2cccc(c2)COC/1 [pacritinib]
  Myelosuppression: lack of myelosuppression

## N#CC[C@H](C1CCCC1)n1cc(-c2ncnc3[nH]ccc23)cn1 [ruxolitinib]
Following 4 weeks' treatment
  TNFα level: downregulated
long-term treatment
  Change in allele burden: only a modest reduction

## Cc1cnc(Nc2ccc(OCCN3CCCC3)cc2)nc1Nc1cccc(S(=O)(=O)NC(C)(C)C)c1 [fedratinib]
  Change in allele burden: no meaningful change in allele burden
Patients treated, no reference given
  CRP and IL-6 levels: CRP downregulation was reported without significant IL-6 reduction

## N#CCNC(=O)c1ccc(-c2ccnc(Nc3ccc(N4CCOCC4)cc3)n2)cc1 [momelotinib]
  Change in allele burden: no meaningful change in allele burden
